Drawing on patent US8642629B2, “Naphthylacetic acids” (Hoffmann-La Roche Inc., priority 2008, dated 2014), this text covers IC50 for 28 molecules.

The target of the test is T1, human CRTH2 (Homo sapiens, UniProt Q9Y5Y4).
T1 construct: expressed in transfected cells; host or cells: CHO-K1
T1 sequence (Q9Y5Y4 1-395): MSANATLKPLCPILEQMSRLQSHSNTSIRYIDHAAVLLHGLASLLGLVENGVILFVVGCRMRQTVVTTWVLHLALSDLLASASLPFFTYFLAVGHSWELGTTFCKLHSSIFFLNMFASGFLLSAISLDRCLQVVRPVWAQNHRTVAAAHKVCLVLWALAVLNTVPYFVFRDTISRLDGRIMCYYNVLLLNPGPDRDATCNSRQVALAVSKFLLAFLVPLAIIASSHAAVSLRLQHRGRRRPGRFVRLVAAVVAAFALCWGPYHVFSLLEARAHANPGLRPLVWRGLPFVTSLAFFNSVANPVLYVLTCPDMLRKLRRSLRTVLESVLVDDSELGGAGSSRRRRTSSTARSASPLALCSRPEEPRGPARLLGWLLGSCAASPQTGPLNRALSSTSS
Nature of the test: Human CRTH2 Receptor Binding Assay (whole cell, [3H]ramatroban competition). The settings on record: CHO-K1 cells expressing human CRTH2 and G-alpha16; 20 nM [3H]ramatroban; 1 hour, room temperature. An excerpt: A whole cell receptor binding assay using [^3H]ramatroban as the competing radioactive ligand was employed to evaluate the compound binding activity to human CRTH2. The radioactive ligand [^3H]ramatroban was synthesized according to Sugimoto et. al. (Eur. J. Pharmacol. 524, 30-37, 2005) to a specific activity of 42 Ci/mmol.
A cell line stably expressing human CRTH2 was established by transfecting CHO-K1 cells with two mammalian expression vectors that harbored human CRTH2 and G-alpha16 cDNAs, respectively, using FuGene® 6 transfection reagent (from Roche). Stable clones expressing CRTH2 were selected by staining each clone with BM16 (BD Pharmingen™ from BD Biosciences, a division of Becton, Dickinson and Company), which is a rat monoclonal antibody to human CRTH2. The cells were maintained as monolayer cultures in Ham's F-12 medium containing 10% fetal bovine serum, 100 units/mL penicillin, 100 μg/mL streptomycin, 2 mM glutamine, 0.5 mg/mL G418 (geneticin) for CRTH2, and 0.2 mg/mL hygromycin-B (for G-alpha 16). For whole cell receptor binding assay, the monolayer cells were rinsed once with PBS (phosphate buffered saline), dissociated using ethylenediaminetetraacetate (Versene™ EDTA from Lonza Inc.), and suspended in PBS containing 10 mM MgCl2 and 0.06% BSA (bovine serum albumin) at 1.5×10^6 cells/mL.
The binding reactions (0.2 mL) were performed in 96-well plates at room temperature in PBS containing 1.5×10^5 cells, 10 mM MgCl2, 0.06% BSA, 20 nM [^3H]ramatroban, and test compound at various concentrations. After 1 hour of binding reactions, the cells were harvested on GF™/B filter microplates (microtiter plates with embedded glass fiber from PerkinElmer, Inc.) and washed 5 times with PBS using a Filtermate™ Harvester (a cell harvester that harvests and washes cells from microplates from PerkinElmer, Inc.). The radioactivities bound to the cells were determined using a microplate scintillation counter (TopCount® NXT, from PerkinElmer, Inc.) after adding 50 μL of Microscint™ 20 scintillation fluid (from PerkinElmer, Inc.) to each well of the filter plates. The radioactivity from non-specific binding was determined by replacing compound with 10 μM of 15(R)-15-methyl PGD2 (from Cayman Chemical Company) in the reaction mixtures. The radioactivity bound to the cells in the absence of compound (total binding) was determined by replacing compound with 0.25% of DMSO (dimethyl sulfoxide) in the reaction mixture. Specific binding data were obtained by subtracting the radioactivity of non-specific binding from each binding data.
The IC50 value is defined as the concentration of the tested compound that is required for 50% inhibition of total specific binding. In order to calculate the IC50 value, the percent inhibition data were determined for 7 concentrations for each compound. The percent inhibition for a compound at each concentration was calculated according to the following formula, [1−(specific binding in the presence of compound)/(total specific binding)]×100. The IC50 value was then obtained by fitting the percent inhibition data to a sigmoidal dose-response (4 parameter logistic) model in the XLfit® software Excel add-in program [from ID Business Solutions Ltd., model 205, where F(x)=(A+(B−A)/(1+((C/x)^D)))].
As usually defined, the IC50 is the concentration that gives 50% inhibition. A high value points to weaker potency. `CC(C)S(=O)(=O)c1ccc(Oc2cc(CC(=O)O)cc3ccc(F)cc23)cc1` [Example 1-4, {6-fluoro-4-[4-(propane-2-sulfonyl)-phenoxy]-naphthalen-2-yl}-acetic acid]: the IC50 turned out to be 6.7 nM.

With `CCS(=O)(=O)c1ccc(Oc2cc(CC(=O)O)cc3ccc(OC(F)(F)F)cc23)nc1` [Example 1-18, [4-(5-Ethanesulfonyl-pyridin-2-yloxy)-6-trifluoromethoxy-naphthalen-2-yl]-acetic acid], the IC50 turned out to be 2.6 nM.

Molecule `CCS(=O)(=O)c1cnc(Oc2cc(CC(=O)O)cc3ccc(F)cc23)c(Br)c1` [Example 1-13, [4-(3-bromo-5-ethanesulfonyl-pyridin-2-yloxy)-6-fluoro-naphthalen-2-yl]-acetic acid] came in with an IC50 of 2.3 nM.

Turning to `CCS(=O)(=O)c1ccc(Oc2c(C)c(CC(=O)O)cc3ccc(F)cc23)c(F)c1` [Example 2-13, [4-(4-ethanesulfonyl-2-fluoro-phenoxy)-6-fluoro-3-methyl-naphthalen-2-yl]-acetic acid], the IC50 worked out at 2.4 nM.

Take `CCS(=O)(=O)c1ccc(Oc2c(C)c(CC(=O)O)cc3ccc(F)cc23)cc1F` [Example 2-17, [4-(4-ethanesulfonyl-3-fluoro-phenoxy)-6-fluoro-3-methyl-naphthalen-2-yl]-acetic acid]: the IC50 worked out at 3.7 nM.

The molecule `Cc1c(CC(=O)O)cc2ccc(F)cc2c1Oc1ccc(S(=O)(=O)c2ccc(F)cc2)cc1` [Example 2-27, {6-fluoro-4-[4-(4-fluoro-benzenesulfonyl)-phenoxy]-3-methyl-naphthalen-2-yl}-acetic acid] showed an IC50 of 2.9 nM.

The molecule `CS(=O)(=O)c1ccc([S+]([O-])c2cc(CC(=O)O)cc3ccc(F)cc23)cc1` (stereo not shown) [Example 10-1, [6-fluoro-4-(4-methanesulfonyl-benzenesulfinyl)-naphthalen-2-yl]-acetic acid] had an IC50 of 10.3 nM.

`CCS(=O)(=O)c1ccc(Oc2cc(CC(=O)O)cc3ccc(F)cc23)nc1` [Example 1-11, [4-(5-ethanesulfonyl-pyridin-2-yloxy)-6-fluoro-naphthalen-2-yl]-acetic acid]: the IC50 came to 5.6 nM.

Molecule `CCS(=O)(=O)c1ccc(Oc2cc(CC(=O)O)cc3ccc(OC(F)(F)F)cc23)cc1` [Example 1-19, [4-(4-Ethanesulfonyl-phenoxy)-6-trifluoromethoxy-naphthalen-2-yl]-acetic acid] registered an IC50 of 2.6 nM.

`Cc1c(CC(=O)O)cc2ccc(F)cc2c1Oc1ccc(S(C)(=O)=O)cc1Cl` [Example 2-20, [4-(2-chloro-4-methanesulfonyl-phenoxy)-6-fluoro-3-methyl-naphthalen-2-yl]-acetic acid] yielded an IC50 of 2.5 nM.

Molecule `CS(=O)(=O)c1ccc(Oc2cc(CC(=O)O)cc3ccccc23)cc1` [Example 3-1, [4-(4-methanesulfonyl-phenoxy)-naphthalen-2-yl]-acetic acid] gave an IC50 of 12.9 nM.

`Cc1c(CC(=O)O)cc2ccc(F)cc2c1Oc1ccc(S(=O)(=O)c2ccccc2)cc1` [Example 2-28, [4-(4-benzenesulfonyl-phenoxy)-6-fluoro-3-methyl-naphthalen-2-yl]-acetic acid] gave a half-maximal inhibitory concentration (IC50) of 5 nM.

In turn, `CCCCS(=O)(=O)c1ccc(Oc2c(C)c(CC(=O)O)cc3ccc(F)cc23)cc1` [Example 2-23, {4-[4-(butane-1-sulfonyl)-phenoxy]-6-fluoro-3-methyl-naphthalen-2-yl}-acetic acid] gave an IC50 of 2.1 nM.

As for `Cc1c(CC(=O)O)cc2ccc(Cl)cc2c1Oc1ccc(S(C)(=O)=O)cc1` [Example 2-7, [6-Chloro-4-(4-methanesulfonyl-phenoxy)-3-methyl-naphthalen-2-yl]-acetic acid], the IC50 was 2.2 nM.

The molecule `Cc1c(CC(=O)O)cc2ccc(F)cc2c1Oc1ccc(S(=O)(=O)c2ccc(Cl)cc2)cc1` [Example 2-31, {4-[4-(4-chloro-benzenesulfonyl)-phenoxy]-6-fluoro-3-methyl-naphthalen-2-yl}-acetic acid] came in with an IC50 of 3.6 nM.

On to `Cc1cc(Oc2c(C)c(CC(=O)O)cc3ccc(F)cc23)ccc1S(C)(=O)=O` [Example 2-6, [6-fluoro-4-(4-methanesulfonyl-3-methyl-phenoxy)-3-methyl-naphthalen-2-yl]-acetic acid], for which the concentration for half-maximal inhibition (IC50) turned out to be 2.7 nM.

As for `CCN(CC)S(=O)(=O)c1ccc(Oc2c(C)c(CC(=O)O)cc3ccc(F)cc23)cc1` [Example 2-39, [4-(4-diethylsulfamoyl-phenoxy)-6-fluoro-3-methyl-naphthalen-2-yl]-acetic acid], the IC50 is 2 nM.

The molecule `CS(=O)(=O)c1ccc(Sc2cc(CC(=O)O)cc3ccc(F)cc23)cc1` [Example 9-1, [6-fluoro-4-(4-methanesulfonyl-phenylsulfanyl)-naphthalen-2-yl]-acetic acid] showed an IC50 of 7.5 nM.

`CCS(=O)(=O)c1ccc(Oc2cc(CC(=O)O)cc3cc(OC)c(OC)cc23)cc1` [Example 1-23, [4-(4-Ethanesulfonyl-phenoxy)-6,7-dimethoxy-naphthalen-2-yl]-acetic acid]: the IC50 stood at 97.3 nM.

The molecule `Cc1c(CC(=O)O)cc2ccc(F)cc2c1Oc1ccc(S(C)(=O)=O)cc1` [Example 2-2, [6-fluoro-4-(4-methanesulfonyl-phenoxy)-3-methyl-naphthalen-2-yl]-acetic acid] gave an IC50 of 2.3 nM.

On to `Cc1cc(Oc2cc(CC(=O)O)cc3ccc(F)cc23)ccc1S(C)(=O)=O` [Example 1-7, [6-fluoro-4-(4-methanesulfonyl-3-methyl-phenoxy)-naphthalen-2-yl]-acetic acid], for which the IC50 amounted to 3.5 nM.

Turning to `CCS(=O)(=O)c1cnc(Oc2c(C)c(CC(=O)O)cc3ccc(F)cc23)c(C)c1` [Example 2-35, [4-(5-ethanesulfonyl-3-methyl-pyridin-2-yloxy)-6-fluoro-3-methyl-naphthalen-2-yl]-acetic acid], the IC50 turned out to be 2.9 nM.

Turning to `CS(=O)(=O)c1ccc(Oc2cc(CC(=O)O)cc3ccc(F)cc23)cc1` [Example 1-2, [6-fluoro-4-(4-methanesulfonyl-phenoxy)-naphthalen-2-yl]-acetic acid], the IC50 worked out at 3.1 nM.

Molecule `Cc1cc(Oc2c(C)c(CC(=O)O)cc3ccc(Cl)cc23)ccc1S(C)(=O)=O` [Example 2-8, [6-chloro-4-(4-methanesulfonyl-3-methyl-phenoxy)-3-methyl-naphthalen-2-yl]-acetic acid] yielded an IC50 of 4.5 nM.

For the molecule `Cc1c(CC(=O)O)cc2ccc(F)cc2c1Oc1ccc(S(=O)(=O)N2CC3(COC3)C2)cc1` [Example 2-43, {6-fluoro-3-methyl-4-[4-(2-oxa-6-aza-spiro[3.3]heptane-6-sulfonyl)-phenoxy]-naphthalen-2-yl}-acetic acid], the IC50 was found to be 1.8 nM.

The molecule `Cc1c(CC(=O)O)cc2ccc(F)cc2c1Oc1ccc(S(C)(=O)=O)c(Cl)c1` [Example 2-11, [4-(3-chloro-4-methanesulfonyl-phenoxy)-6-fluoro-3-methyl-naphthalen-2-yl]-acetic acid] yielded an IC50 of 3 nM.

`CS(=O)(=O)c1cnc(Oc2cc(CC(=O)O)cc3ccc(F)cc23)c(Br)c1` [Example 1-14, [4-(3-bromo-5-methanesulfonyl-pyridin-2-yloxy)-6-fluoro-naphthalen-2-yl]-acetic acid] returned an IC50 of 19.1 nM.

`CCS(=O)(=O)c1ccc(Oc2c(C)c(CC(=O)O)cc3ccc(F)cc23)cc1C` [Example 2-14, [4-(4-ethanesulfonyl-3-methyl-phenoxy)-6-fluoro-3-methyl-naphthalen-2-yl]-acetic acid] showed an IC50 of 1.6 nM.
